Test results taken from PubChem BioAssay (NCI).
Several values for one entry are separate records, joined by “and”; a condition that tells them apart may be missing. Equal entries are not always repeated.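 These data come from cells grown in 96-well plates and exposed to compound for 48 hours at five concentrations. GI50 = concentration required for 50% inhibition of growth. At the TGI there is no net growth.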

Legend:
Test in all cases: DTP human tumour cell line panel, 48 h
HOP-92 NSCLC = test system: HOP-92 NSCLC
IGROV1 ovarian = test system: IGROV1 ovarian
K-562 leukemia = test system: K-562 leukemia
M14 melanoma = test system: M14 melanoma
NCI-H522 lung = test system: NCI-H522 lung
OVCAR-4 ovarian = test system: OVCAR-4 ovarian
SNB-19 CNS = test system: SNB-19 CNS
UACC-257 melanoma = test system: UACC-257 melanoma
A498 renal = test system: A498 renal

CCOC(=O)/C(C#N)=C1/C(O)=C(C(=O)OC)C(C(=O)OC)=C1C(=O)OC
TGI (HOP-92 NSCLC): > 100 µM
TGI (IGROV1 ovarian): > 100 µM
TGI (K-562 leukemia): > 100 µM
TGI (M14 melanoma): > 100 µM
TGI (NCI-H522 lung): > 100 µM
TGI (OVCAR-4 ovarian): > 100 µM
TGI (SNB-19 CNS): > 100 µM
TGI (UACC-257 melanoma): > 100 µM

CC1=C[P+](Cc2ccccc2)(c2ccccc2)CC1 (stereo unspecified)
TGI (A498 renal): > 100 µM
TGI (IGROV1 ovarian): > 100 µM
TGI (K-562 leukemia): > 100 µM
TGI (M14 melanoma): > 100 µM
TGI (NCI-H522 lung): > 100 µM
TGI (OVCAR-4 ovarian): > 100 µM
TGI (SNB-19 CNS): > 100 µM
TGI (UACC-257 melanoma): > 100 µM and 78 µM

O=S(O)CCCSSc1ccccc1
TGI (A498 renal): > 100 µM
TGI (IGROV1 ovarian): 41.1 µM
TGI (K-562 leukemia): > 100 µM
TGI (M14 melanoma): > 100 µM
TGI (NCI-H522 lung): 42.4 µM
TGI (OVCAR-4 ovarian): > 100 µM
TGI (SNB-19 CNS): > 100 µM
TGI (UACC-257 melanoma): > 100 µM

Cc1cc2c(c3oc(C4(C)OC4C4OC4C)cc(=O)c13)C(=O)c1c(O)c(C3CC(C)(N(C)C)C(O)C(C)O3)cc(C3CC(N(C)C)C(O)C(C)O3)c1C2=O (stereo unspecified)
GI50 (A498 renal): 0.00057 µM
TGI (A498 renal): 0.00114 µM
GI50 (HOP-92 NSCLC): 0.000258 µM
GI50 (K-562 leukemia): 0.0838 nM and 0.124 nM
TGI (K-562 leukemia): 0.0147 µM and 0.0192 µM and 0.0348 µM
GI50 (M14 melanoma): 0.000101 µM
TGI (M14 melanoma): 0.000196 µM and 0.000148 µM
TGI (SNB-19 CNS): 0.0713 µM and 0.00863 µM and 0.0158 µM
TGI (UACC-257 melanoma): 0.00312 µM and 0.000772 µM

N#CCC(=O)N/N=C(\C(=O)Nc1ccc(Cl)c(Cl)c1)C1CN(c2ccccc2)N=C1N (stereo unspecified)
TGI (A498 renal): > 100 µM
TGI (HOP-92 NSCLC): > 100 µM
TGI (IGROV1 ovarian): > 100 µM
TGI (K-562 leukemia): > 100 µM
TGI (M14 melanoma): > 100 µM
TGI (NCI-H522 lung): > 100 µM
TGI (OVCAR-4 ovarian): > 100 µM
TGI (UACC-257 melanoma): > 100 µM

COc1ccc2nc3ccccc3c(NCCCN(C)CCCl)c2c1
TGI (A498 renal): 2.42 µM
TGI (HOP-92 NSCLC): 1.24 µM
TGI (IGROV1 ovarian): 2.21 µM
TGI (K-562 leukemia): 2.59 µM
TGI (M14 melanoma): 2.33 µM
TGI (NCI-H522 lung): 1.15 µM
TGI (OVCAR-4 ovarian): 2.07 µM
TGI (SNB-19 CNS): 2.06 µM
TGI (UACC-257 melanoma): 2.24 µM

CC[C@@H]1C[C@H]2CC3c4[nH]c5ccc(O)cc5c4CCN(C2)C31
TGI (HOP-92 NSCLC): > 100 µM
TGI (IGROV1 ovarian): > 100 µM
TGI (K-562 leukemia): > 100 µM
TGI (M14 melanoma): > 100 µM
TGI (SNB-19 CNS): > 100 µM
TGI (UACC-257 melanoma): > 100 µM

CSCCOC(=O)C(=[N+]=[N-])c1ccc([N+](=O)[O-])cc1
TGI (IGROV1 ovarian): > 100 µM
TGI (K-562 leukemia): > 100 µM
TGI (M14 melanoma): > 100 µM
TGI (NCI-H522 lung): > 100 µM
TGI (OVCAR-4 ovarian): > 100 µM
TGI (SNB-19 CNS): > 100 µM
TGI (UACC-257 melanoma): > 100 µM

CCC[CH2][Sn]1([CH2]CCC)[O]C(=O)c2ccc(C)cc2[O]1
GI50 (A498 renal): 0.367 µM
TGI (A498 renal): 1.06 µM
GI50 (HOP-92 NSCLC): 0.326 µM
TGI (HOP-92 NSCLC): 1.24 µM
GI50 (IGROV1 ovarian): 1.17 µM
TGI (IGROV1 ovarian): 2.44 µM
GI50 (K-562 leukemia): 247 nM
TGI (K-562 leukemia): 0.846 µM
GI50 (M14 melanoma): 0.584 µM
TGI (M14 melanoma): 1.84 µM
GI50 (NCI-H522 lung): 0.113 µM
TGI (NCI-H522 lung): 0.239 µM
GI50 (OVCAR-4 ovarian): 1.11 µM
TGI (OVCAR-4 ovarian): 2.43 µM
GI50 (SNB-19 CNS): 0.32 µM
TGI (SNB-19 CNS): 1.12 µM
GI50 (UACC-257 melanoma): 0.316 µM
TGI (UACC-257 melanoma): 1.49 µM

COc1ccc(OC(C(=O)O)c2ccccc2)c2c1CCCC2=O (stereo unspecified)
TGI (A498 renal): > 100 µM
TGI (HOP-92 NSCLC): > 100 µM
TGI (IGROV1 ovarian): > 100 µM
TGI (K-562 leukemia): > 100 µM
TGI (M14 melanoma): > 100 µM
TGI (NCI-H522 lung): > 100 µM
TGI (OVCAR-4 ovarian): > 100 µM
TGI (SNB-19 CNS): > 100 µM
TGI (UACC-257 melanoma): > 100 µM

OC1C2CCC1C1C3C=CC(C3)C21 (stereo unspecified)
TGI (HOP-92 NSCLC): > 100 µM
TGI (IGROV1 ovarian): > 100 µM
TGI (K-562 leukemia): > 100 µM
TGI (M14 melanoma): > 100 µM
TGI (NCI-H522 lung): > 100 µM
TGI (OVCAR-4 ovarian): > 100 µM
TGI (SNB-19 CNS): > 100 µM
TGI (UACC-257 melanoma): > 100 µM

C[n+]1ccc(-c2c3nc(c(-c4cc[n+](C)cc4)c4ccc([n-]4)c(-c4cc[n+](C)cc4)c4nc(c(-c5cc[n+](C)cc5)c5ccc2[n-]5)C=C4)C=C3)cc1.[I-].[Zn+2]
GI50 (A498 renal): 8.34 µM
TGI (A498 renal): 31.3 µM
GI50 (IGROV1 ovarian): 25.4 µM
TGI (IGROV1 ovarian): 57.8 µM
GI50 (K-562 leukemia): 23000 nM
TGI (K-562 leukemia): 59.8 µM
GI50 (M14 melanoma): 14 µM
TGI (M14 melanoma): 35.5 µM
GI50 (NCI-H522 lung): 1.61 µM
TGI (NCI-H522 lung): 9.88 µM
GI50 (OVCAR-4 ovarian): 2.43 µM
TGI (OVCAR-4 ovarian): 10.4 µM
GI50 (SNB-19 CNS): 19.4 µM
TGI (SNB-19 CNS): 45.5 µM
GI50 (UACC-257 melanoma): 9.61 µM
TGI (UACC-257 melanoma): 30.1 µM

O=C1c2ccccc2C(=O)N1C/C=C/CO
TGI (A498 renal): > 100 µM
TGI (IGROV1 ovarian): > 100 µM
TGI (K-562 leukemia): > 100 µM
TGI (M14 melanoma): > 100 µM
TGI (NCI-H522 lung): > 100 µM
TGI (OVCAR-4 ovarian): > 100 µM
TGI (SNB-19 CNS): > 100 µM
TGI (UACC-257 melanoma): > 100 µM

N#C/C(=C/Sc1ccccc1)C(=O)O
TGI (HOP-92 NSCLC): > 100 µM
TGI (IGROV1 ovarian): 37.2 µM
TGI (K-562 leukemia): > 100 µM
TGI (M14 melanoma): 57.2 µM
TGI (NCI-H522 lung): 23.4 µM
TGI (OVCAR-4 ovarian): > 100 µM
TGI (SNB-19 CNS): > 100 µM
TGI (UACC-257 melanoma): > 100 µM

Clc1cc2n[se]nc2cc1Cl
TGI (A498 renal): > 100 µM
TGI (IGROV1 ovarian): > 100 µM
TGI (K-562 leukemia): > 100 µM
TGI (M14 melanoma): > 100 µM
TGI (OVCAR-4 ovarian): > 100 µM
TGI (SNB-19 CNS): > 100 µM
TGI (UACC-257 melanoma): > 100 µM

CCOC(=O)c1ccc(NC(=O)SCCC(=O)O)cc1
TGI (A498 renal): > 100 µM
TGI (IGROV1 ovarian): > 100 µM
TGI (K-562 leukemia): > 100 µM
TGI (M14 melanoma): > 100 µM
TGI (SNB-19 CNS): > 100 µM
TGI (UACC-257 melanoma): > 100 µM

CCOc1ccccc1NC(=O)CCc1n[nH]c(=S)o1
TGI (HOP-92 NSCLC): > 100 µM
TGI (K-562 leukemia): > 100 µM
TGI (M14 melanoma): > 100 µM
TGI (NCI-H522 lung): > 100 µM
TGI (SNB-19 CNS): > 100 µM
TGI (UACC-257 melanoma): > 100 µM

Cc1nn(C)cc1P(=S)(c1ccccc1)c1ccccc1
TGI (A498 renal): > 100 µM
TGI (HOP-92 NSCLC): > 100 µM
TGI (IGROV1 ovarian): > 100 µM
TGI (K-562 leukemia): > 100 µM
TGI (M14 melanoma): > 100 µM
TGI (OVCAR-4 ovarian): > 100 µM
TGI (SNB-19 CNS): > 100 µM
TGI (UACC-257 melanoma): > 100 µM

Cc1ccc(-c2nc(N3CCCNCC3)c3oc(-c4ccccc4)nc3n2)cc1
GI50 (A498 renal): 1.66 µM
TGI (A498 renal): 3.16 µM
GI50 (IGROV1 ovarian): 1.67 µM
TGI (IGROV1 ovarian): 3.24 µM
GI50 (M14 melanoma): 1.76 µM
TGI (M14 melanoma): 3.29 µM
GI50 (NCI-H522 lung): 1.72 µM
TGI (NCI-H522 lung): 3.29 µM
GI50 (OVCAR-4 ovarian): 1.82 µM
TGI (OVCAR-4 ovarian): 3.55 µM
GI50 (SNB-19 CNS): 1.82 µM
TGI (SNB-19 CNS): 3.45 µM
GI50 (UACC-257 melanoma): 1.96 µM
TGI (UACC-257 melanoma): 3.48 µM
